Data: PubChem BioAssay AID248 (DTP/NCI, 2004)
Toxic doses and inconclusive results are not listed. Rule as the data show it: active = T/C of 150% or more; inactive = T/C below 125%.

Tested on: L1210 leukemia ip in BDF1 mice, survival T/C
Assay: NCI In Vivo Anticancer Drug Screen. Data for tumor model L1210 Leukemia (intraperitoneal) in B6D2F1 (BDF1) mice
Conditions: endpoint: mean survival time, higher = longer survival
How it was run: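 Ratio derived from survival: compound-dosed mice over vehicle-dosed mice, all bearing a transplantable tumor.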

[1] = dose: 100.0 mg/kg/injection, schedule: Q04DX003 (ip), vehicle: saline with Tween-80
[2] = dose: 200.0 mg/kg/injection, schedule: Q04DX003 (ip), vehicle: saline with Tween-80
[3] = dose: 400.0 mg/kg/injection, schedule: Q04DX003 (ip), vehicle: saline with Tween-80
[4] = dose: 50.0 mg/kg/injection, schedule: Q01DX009 (ip), vehicle: Klucel (hydroxypropylcellulose) (HPC)
[5] = dose: 100.0 mg/kg/injection, schedule: Q01DX009 (ip), vehicle: Klucel (hydroxypropylcellulose) (HPC)
[6] = dose: 100.0 mg/kg/injection, schedule: Q04DX003 (ip), vehicle: Klucel (hydroxypropylcellulose) (HPC)
[7] = dose: 200.0 mg/kg/injection, schedule: Q04DX003 (ip), vehicle: Klucel (hydroxypropylcellulose) (HPC)
[8] = dose: 100.0 mg/kg/injection, schedule: Q01DX001 (ip), vehicle: carboxymethylcellulose (CMC)
[9] = dose: 200.0 mg/kg/injection, schedule: Q01DX001 (ip), vehicle: carboxymethylcellulose (CMC)
[10] = dose: 400.0 mg/kg/injection, schedule: Q01DX001 (ip), vehicle: carboxymethylcellulose (CMC)
[11] = dose: 200.0 mg/kg/injection, schedule: Q01DX009 (ip), vehicle: Klucel (hydroxypropylcellulose) (HPC)
[12] = dose: 100.0 mg/kg/injection, schedule: Q04DX003 (ip), vehicle: saline
[13] = dose: 200.0 mg/kg/injection, schedule: Q04DX003 (ip), vehicle: saline

Measured: T/C

CCCCC(C)O[Si](C)C1(C)CCCCC1 (centres undefined)
inactive: [1] 94 % of control | [2] 95 % of control | [3] 106 % of control

CSc1nccc(=O)[nH]1
inactive: [4] 100 % of control | [5] 95 % of control | [6] 102 % of control | [7] 96 % of control

Cn1ncc2ccccc21
inactive: dose: 62.5 mg/kg/injection, schedule: Q01DX009 (ip), vehicle: other 101 % of control | dose: 125.0 mg/kg/injection, schedule: Q01DX009 (ip), vehicle: other 102 % of control | dose: 250.0 mg/kg/injection, schedule: Q01DX009 (ip), vehicle: other 93 % of control

CCCCCC[n+]1cccc(C(N)=O)c1
inactive: [6] 100 % of control | [7] 94 % of control

CCCCCC(=O)C(CCCC)C(=O)Nc1ccccc1 (centres undefined)
inactive: [8] 96 % of control | [9] 91 % of control | [10] 91 % of control

Nc1cccc(CNC(=O)COc2cccc(Cl)c2)c1
inactive: [4] 116 % of control | [5] 109 % of control | [6] 96 % of control | [11] 120 % of control | [7] 96 % of control | dose: 400.0 mg/kg/injection, schedule: Q04DX003 (ip), vehicle: Klucel (hydroxypropylcellulose) (HPC) 104 % of control

CC[N+](C)(CC)CCNC(=O)C(c1ccccc1)c1ccccc1
inactive: [12] 100 % of control

Cc1ccc(N=Nc2c(N)ccc3ccccc23)cc1
inactive: dose: 100.0 mg/kg/injection, schedule: Q01DX001 (ip), vehicle: other 100 % of control | dose: 200.0 mg/kg/injection, schedule: Q01DX001 (ip), vehicle: other 100 % of control

O=C1c2ccccc2C(=O)c2c(Nc3ccc(S(=O)(=O)N(CCO)CCO)cc3)ccc(O)c21
inactive: dose: 100.0 mg/kg/injection, schedule: Q01DX001 (ip), vehicle: saline 97 % of control | dose: 200.0 mg/kg/injection, schedule: Q01DX001 (ip), vehicle: saline 100 % of control

CCN(CC)CCOC(=O)Nc1ccc(Cl)cc1
inactive: [5] 93 % of control | [12] 98 % of control | [11] 93 % of control | [13] 98 % of control | dose: 400.0 mg/kg/injection, schedule: Q01DX009 (ip), vehicle: Klucel (hydroxypropylcellulose) (HPC) 98 % of control

Cc1ccc(S(=O)(=O)N/N=C2/C(=N/NS(=O)(=O)c3ccc(C)cc3)c3cccc4cccc2c34)cc1
inactive: dose: 75.0 mg/kg/injection, schedule: Q01DX001 (ip), vehicle: carboxymethylcellulose (CMC) 91 % of control | dose: 150.0 mg/kg/injection, schedule: Q01DX001 (ip), vehicle: carboxymethylcellulose (CMC) 91 % of control | dose: 300.0 mg/kg/injection, schedule: Q01DX001 (ip), vehicle: carboxymethylcellulose (CMC) 88 % of control

O=C1CCc2cc(Cl)ccc2O1
inactive: dose: 50.0 mg/kg/injection, schedule: Q01DX001 (ip), vehicle: carboxymethylcellulose (CMC) 103 % of control | [8] 100 % of control | [9] 103 % of control | [10] 94 % of control

CCCCP(=O)(CCC)CCCC
inactive: [1] 99 % of control | [2] 94 % of control | [3] 87 % of control

C(CSC1=NCCN1)CSC1=NCCN1
inactive: dose: 6.25 mg/kg/injection, schedule: Q01DX009 (ip), vehicle: saline 105 % of control | dose: 12.5 mg/kg/injection, schedule: Q01DX009 (ip), vehicle: saline 111 % of control | dose: 25.0 mg/kg/injection, schedule: Q01DX009 (ip), vehicle: saline 107 % of control | dose: 50.0 mg/kg/injection, schedule: Q01DX009 (ip), vehicle: saline 117 % of control | dose: 100.0 mg/kg/injection, schedule: Q01DX009 (ip), vehicle: saline 115 % of control | [12] 100 % of control | dose: 200.0 mg/kg/injection, schedule: Q01DX009 (ip), vehicle: saline 115 % of control | [13] 108 % of control
